# Laboratory results as given in publication PMC9234961 (Journal of Medicinal Chemistry, 2022).
# Where two headings read alike, the source gives them in different places.
# Key:
# [1] = In vivo pharmacokinetic study in Balb/C mice; design: species or system mouse; conditions: for Vd: 1 mg/kg, read-out: Vss
# ADORA2A = ADORA2A (Homo sapiens, UniProt P29274); test: SAFETYScan GPCR Calcium Flux, Antagonist; format: cell-based
# Description: (§1) Supplement jm1c02175_si_002.xlsx, sheet "SAFETYScan" | column: RC50 (uM); Max Response
# CHRM3 = CHRM3 (Homo sapiens, UniProt P20309); test: SAFETYScan GPCR Calcium Flux, Antagonist; format: cell-based
# Description: as §1
# ADRA2A = molecular target: T1, ADRA2A (Homo sapiens, UniProt P08913); test: SAFETYScan GPCR cAMP, Agonist; format: cell-based
# T1 construct: expressed in transfected cells
# T1 sequence (P08913 1-465): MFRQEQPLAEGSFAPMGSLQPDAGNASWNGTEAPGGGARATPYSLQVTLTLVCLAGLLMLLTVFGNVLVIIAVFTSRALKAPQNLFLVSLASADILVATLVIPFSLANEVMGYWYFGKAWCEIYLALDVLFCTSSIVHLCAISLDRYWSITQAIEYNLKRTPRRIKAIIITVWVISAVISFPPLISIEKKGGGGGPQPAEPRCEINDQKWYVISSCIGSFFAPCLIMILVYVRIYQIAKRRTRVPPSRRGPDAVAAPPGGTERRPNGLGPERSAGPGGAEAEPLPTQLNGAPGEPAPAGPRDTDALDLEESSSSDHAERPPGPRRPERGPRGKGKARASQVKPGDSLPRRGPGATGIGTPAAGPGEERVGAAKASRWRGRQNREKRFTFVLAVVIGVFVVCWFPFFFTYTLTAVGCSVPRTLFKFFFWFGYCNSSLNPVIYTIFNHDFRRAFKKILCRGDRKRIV
# Description: as §1
# ADRB1 = molecular target: T2, ADRB1 (Homo sapiens, UniProt P08588); test: SAFETYScan GPCR cAMP, Agonist; format: cell-based
# T2 construct: expressed in transfected cells
# Description: as §1
# ADRB2 = molecular target: T3, ADRB2 (Homo sapiens, UniProt P07550); test: SAFETYScan GPCR cAMP, Agonist; format: cell-based
# T3 construct: expressed in transfected cells
# Description: as §1
# CHRM2 = molecular target: T4, CHRM2 (Homo sapiens, UniProt P08172); test: SAFETYScan GPCR cAMP, Agonist; format: cell-based
# T4 construct: expressed in transfected cells
# T4 sequence (P08172 1-466): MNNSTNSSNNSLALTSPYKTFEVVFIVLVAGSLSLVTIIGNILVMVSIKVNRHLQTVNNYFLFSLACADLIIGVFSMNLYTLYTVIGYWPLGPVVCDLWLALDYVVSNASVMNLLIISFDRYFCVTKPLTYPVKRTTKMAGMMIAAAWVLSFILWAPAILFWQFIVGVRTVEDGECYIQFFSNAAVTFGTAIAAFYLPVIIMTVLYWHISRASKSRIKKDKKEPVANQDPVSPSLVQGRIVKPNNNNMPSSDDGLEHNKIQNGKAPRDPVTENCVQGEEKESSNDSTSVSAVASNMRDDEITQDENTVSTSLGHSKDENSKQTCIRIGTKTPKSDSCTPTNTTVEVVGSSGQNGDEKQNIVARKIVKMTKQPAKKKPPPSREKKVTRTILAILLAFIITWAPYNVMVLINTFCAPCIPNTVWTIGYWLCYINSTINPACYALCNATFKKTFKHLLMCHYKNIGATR
# Description: as §1
# CNR1 = molecular target: T5, CNR1 (Homo sapiens, UniProt P21554); test: SAFETYScan GPCR cAMP, Agonist; format: cell-based
# T5 construct: expressed in transfected cells
# Description: as §1
# CNR2 = molecular target: T6, CNR2 (Homo sapiens, UniProt P34972); test: SAFETYScan GPCR cAMP, Agonist; format: cell-based
# T6 construct: expressed in transfected cells
# Description: as §1
# DRD1 = molecular target: T7, DRD1 (Homo sapiens, UniProt P21728); test: SAFETYScan GPCR cAMP, Agonist; format: cell-based
# T7 construct: expressed in transfected cells
# Description: as §1
# DRD2S = molecular target: T8, DRD2S (Homo sapiens, UniProt P14416); test: SAFETYScan GPCR cAMP, Agonist; format: cell-based
# T8 construct: expressed in transfected cells
# Description: as §1
# HRH2 = molecular target: T9, HRH2 (Homo sapiens, UniProt P25021); test: SAFETYScan GPCR cAMP, Agonist; format: cell-based
# T9 construct: expressed in transfected cells
# Description: as §1
# HTR1A = molecular target: T10, HTR1A (Homo sapiens, UniProt P08908); test: SAFETYScan GPCR cAMP, Agonist; format: cell-based
# T10 construct: expressed in transfected cells
# T10 sequence (P08908 1-422): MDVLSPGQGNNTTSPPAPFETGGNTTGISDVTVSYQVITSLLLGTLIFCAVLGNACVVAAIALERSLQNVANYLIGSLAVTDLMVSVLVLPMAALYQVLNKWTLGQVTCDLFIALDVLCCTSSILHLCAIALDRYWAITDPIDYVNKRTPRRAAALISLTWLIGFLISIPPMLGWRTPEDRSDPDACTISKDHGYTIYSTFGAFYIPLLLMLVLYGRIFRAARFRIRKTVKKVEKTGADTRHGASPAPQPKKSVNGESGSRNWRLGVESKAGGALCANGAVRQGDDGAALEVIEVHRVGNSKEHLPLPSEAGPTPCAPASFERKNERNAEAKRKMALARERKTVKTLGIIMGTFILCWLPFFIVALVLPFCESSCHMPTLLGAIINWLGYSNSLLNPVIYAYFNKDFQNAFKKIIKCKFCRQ
# Description: as §1
# HTR1B = molecular target: T11, HTR1B (Homo sapiens, UniProt P28222); test: SAFETYScan GPCR cAMP, Agonist; format: cell-based
# T11 construct: expressed in transfected cells
# Description: as §1
# OPRD1 = OPRD1 (Homo sapiens, UniProt P41143); test: SAFETYScan GPCR cAMP, Agonist; format: cell-based
# Description: as §1
# OPRK1 = OPRK1 (Homo sapiens, UniProt P41145); test: SAFETYScan GPCR cAMP, Agonist; format: cell-based
# Description: as §1
# OPRM1 = OPRM1 (Homo sapiens, UniProt P35372); test: SAFETYScan GPCR cAMP, Agonist; format: cell-based
# Description: as §1
# T11 sequence (P28222 whole entry): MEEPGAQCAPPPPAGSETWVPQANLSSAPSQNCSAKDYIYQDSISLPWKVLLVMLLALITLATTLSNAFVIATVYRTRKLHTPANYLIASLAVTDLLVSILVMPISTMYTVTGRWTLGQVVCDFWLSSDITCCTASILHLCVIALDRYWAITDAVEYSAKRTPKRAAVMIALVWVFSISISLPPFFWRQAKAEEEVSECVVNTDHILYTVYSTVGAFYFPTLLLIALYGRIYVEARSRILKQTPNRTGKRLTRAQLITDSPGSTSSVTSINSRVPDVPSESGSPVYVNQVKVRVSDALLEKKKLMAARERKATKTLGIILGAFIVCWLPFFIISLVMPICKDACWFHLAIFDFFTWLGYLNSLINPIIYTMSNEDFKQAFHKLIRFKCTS
# T5 sequence (P21554 whole entry): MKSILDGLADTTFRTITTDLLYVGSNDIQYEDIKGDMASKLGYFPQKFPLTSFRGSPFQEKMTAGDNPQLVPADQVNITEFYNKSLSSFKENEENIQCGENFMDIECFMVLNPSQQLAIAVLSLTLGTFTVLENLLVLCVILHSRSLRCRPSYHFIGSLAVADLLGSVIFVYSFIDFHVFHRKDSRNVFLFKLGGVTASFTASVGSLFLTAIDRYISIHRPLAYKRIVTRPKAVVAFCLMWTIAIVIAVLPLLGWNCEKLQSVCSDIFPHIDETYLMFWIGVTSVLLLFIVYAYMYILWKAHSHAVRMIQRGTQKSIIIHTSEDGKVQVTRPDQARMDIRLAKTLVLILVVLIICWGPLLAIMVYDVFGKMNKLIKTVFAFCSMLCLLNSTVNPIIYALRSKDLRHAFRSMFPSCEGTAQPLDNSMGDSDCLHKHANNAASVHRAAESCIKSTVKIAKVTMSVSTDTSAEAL
# Chain of OPRK1 (P41145 whole entry, species assumed): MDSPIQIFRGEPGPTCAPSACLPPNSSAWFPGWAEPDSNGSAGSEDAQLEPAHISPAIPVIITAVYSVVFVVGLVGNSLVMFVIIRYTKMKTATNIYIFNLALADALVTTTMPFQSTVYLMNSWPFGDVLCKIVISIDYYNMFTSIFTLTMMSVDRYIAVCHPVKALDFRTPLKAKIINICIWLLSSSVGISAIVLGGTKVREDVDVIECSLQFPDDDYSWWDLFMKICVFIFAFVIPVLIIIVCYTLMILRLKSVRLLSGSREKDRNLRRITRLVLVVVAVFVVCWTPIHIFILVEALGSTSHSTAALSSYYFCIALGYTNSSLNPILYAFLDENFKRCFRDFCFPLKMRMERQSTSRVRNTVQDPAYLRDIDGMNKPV
# Chain of ADORA2A (P29274 whole entry): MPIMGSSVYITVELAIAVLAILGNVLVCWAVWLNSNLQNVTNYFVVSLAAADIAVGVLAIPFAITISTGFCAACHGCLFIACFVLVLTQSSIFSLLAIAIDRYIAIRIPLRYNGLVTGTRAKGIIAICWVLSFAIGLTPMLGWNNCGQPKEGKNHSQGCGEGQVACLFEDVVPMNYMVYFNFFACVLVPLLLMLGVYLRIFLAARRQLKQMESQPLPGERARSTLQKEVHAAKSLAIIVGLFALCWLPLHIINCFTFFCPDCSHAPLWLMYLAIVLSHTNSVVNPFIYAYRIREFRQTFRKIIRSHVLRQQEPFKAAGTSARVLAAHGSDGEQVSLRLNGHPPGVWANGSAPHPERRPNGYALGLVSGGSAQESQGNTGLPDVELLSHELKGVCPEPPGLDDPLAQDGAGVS
# Chain of CHRM3 (P20309 whole entry): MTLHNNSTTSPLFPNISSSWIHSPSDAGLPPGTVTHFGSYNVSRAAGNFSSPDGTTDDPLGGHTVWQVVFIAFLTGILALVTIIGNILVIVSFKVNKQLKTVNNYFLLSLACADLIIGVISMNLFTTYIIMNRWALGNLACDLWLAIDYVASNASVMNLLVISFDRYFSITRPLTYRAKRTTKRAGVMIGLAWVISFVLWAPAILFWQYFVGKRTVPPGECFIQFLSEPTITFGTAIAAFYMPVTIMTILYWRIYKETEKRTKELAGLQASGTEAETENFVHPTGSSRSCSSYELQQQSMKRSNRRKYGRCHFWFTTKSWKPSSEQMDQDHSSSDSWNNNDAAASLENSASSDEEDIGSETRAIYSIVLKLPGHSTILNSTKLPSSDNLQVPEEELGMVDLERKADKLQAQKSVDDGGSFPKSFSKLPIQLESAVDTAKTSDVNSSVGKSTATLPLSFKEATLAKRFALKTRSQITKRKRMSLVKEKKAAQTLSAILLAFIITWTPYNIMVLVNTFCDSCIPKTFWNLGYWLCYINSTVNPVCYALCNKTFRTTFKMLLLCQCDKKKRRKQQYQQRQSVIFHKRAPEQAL
# Chain of OPRM1 (P35372 whole entry, species assumed): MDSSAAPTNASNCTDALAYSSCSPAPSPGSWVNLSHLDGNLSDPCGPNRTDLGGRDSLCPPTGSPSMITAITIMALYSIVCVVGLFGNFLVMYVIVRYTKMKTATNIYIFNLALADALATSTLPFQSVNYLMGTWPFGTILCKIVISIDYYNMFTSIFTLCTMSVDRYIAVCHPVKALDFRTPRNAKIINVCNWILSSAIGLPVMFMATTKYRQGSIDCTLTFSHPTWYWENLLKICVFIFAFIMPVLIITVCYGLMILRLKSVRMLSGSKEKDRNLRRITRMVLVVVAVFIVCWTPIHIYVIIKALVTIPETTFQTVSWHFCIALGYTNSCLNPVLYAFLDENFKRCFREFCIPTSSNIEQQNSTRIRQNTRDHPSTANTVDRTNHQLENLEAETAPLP
# Chain of OPRD1 (P41143 whole entry, species assumed): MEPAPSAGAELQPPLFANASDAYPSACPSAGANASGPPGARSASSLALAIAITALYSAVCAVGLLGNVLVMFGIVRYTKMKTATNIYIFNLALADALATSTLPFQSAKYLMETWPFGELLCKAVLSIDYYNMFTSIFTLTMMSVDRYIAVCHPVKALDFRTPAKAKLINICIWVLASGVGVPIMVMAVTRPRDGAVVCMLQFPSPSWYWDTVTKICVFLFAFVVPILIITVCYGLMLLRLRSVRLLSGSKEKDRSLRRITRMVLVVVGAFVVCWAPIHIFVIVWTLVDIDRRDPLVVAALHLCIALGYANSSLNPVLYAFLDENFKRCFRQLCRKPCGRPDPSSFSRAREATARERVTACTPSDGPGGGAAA
# T8 sequence (P14416 1-414 isoform P14416-2): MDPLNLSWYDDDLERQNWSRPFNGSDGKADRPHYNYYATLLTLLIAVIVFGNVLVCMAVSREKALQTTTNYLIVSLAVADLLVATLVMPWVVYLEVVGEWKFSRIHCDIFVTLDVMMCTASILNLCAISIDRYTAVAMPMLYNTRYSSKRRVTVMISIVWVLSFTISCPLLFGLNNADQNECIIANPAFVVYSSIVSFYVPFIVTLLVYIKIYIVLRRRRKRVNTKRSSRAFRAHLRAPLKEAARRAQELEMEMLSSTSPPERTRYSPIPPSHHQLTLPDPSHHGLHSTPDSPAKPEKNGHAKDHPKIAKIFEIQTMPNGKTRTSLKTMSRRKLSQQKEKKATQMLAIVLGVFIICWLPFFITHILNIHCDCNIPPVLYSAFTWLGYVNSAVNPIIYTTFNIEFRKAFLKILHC
# T2 sequence (P08588 whole entry): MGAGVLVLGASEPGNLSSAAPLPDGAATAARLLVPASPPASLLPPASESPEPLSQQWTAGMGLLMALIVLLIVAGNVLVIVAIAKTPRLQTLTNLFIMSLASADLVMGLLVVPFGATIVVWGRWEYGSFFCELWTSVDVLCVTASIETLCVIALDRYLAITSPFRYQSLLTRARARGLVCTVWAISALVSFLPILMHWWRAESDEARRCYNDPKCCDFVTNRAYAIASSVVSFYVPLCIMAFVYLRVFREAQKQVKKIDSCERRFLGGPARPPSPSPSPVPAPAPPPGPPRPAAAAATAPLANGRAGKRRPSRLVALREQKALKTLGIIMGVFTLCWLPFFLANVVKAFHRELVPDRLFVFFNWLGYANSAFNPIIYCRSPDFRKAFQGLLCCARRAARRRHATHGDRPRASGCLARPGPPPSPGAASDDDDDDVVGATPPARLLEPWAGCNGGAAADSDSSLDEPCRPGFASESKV
# T7 sequence (P21728 whole entry): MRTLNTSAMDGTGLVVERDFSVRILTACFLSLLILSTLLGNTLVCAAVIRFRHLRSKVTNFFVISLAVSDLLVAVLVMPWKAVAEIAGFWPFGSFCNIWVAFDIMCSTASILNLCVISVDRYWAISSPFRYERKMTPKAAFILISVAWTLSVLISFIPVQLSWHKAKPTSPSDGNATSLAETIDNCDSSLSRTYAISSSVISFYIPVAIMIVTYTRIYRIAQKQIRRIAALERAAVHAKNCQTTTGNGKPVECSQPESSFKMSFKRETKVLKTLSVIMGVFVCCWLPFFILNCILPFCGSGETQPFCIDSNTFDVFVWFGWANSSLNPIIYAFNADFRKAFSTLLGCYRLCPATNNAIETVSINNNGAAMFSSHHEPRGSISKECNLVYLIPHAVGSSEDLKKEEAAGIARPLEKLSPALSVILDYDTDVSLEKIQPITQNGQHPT
# T3 sequence (P07550 whole entry): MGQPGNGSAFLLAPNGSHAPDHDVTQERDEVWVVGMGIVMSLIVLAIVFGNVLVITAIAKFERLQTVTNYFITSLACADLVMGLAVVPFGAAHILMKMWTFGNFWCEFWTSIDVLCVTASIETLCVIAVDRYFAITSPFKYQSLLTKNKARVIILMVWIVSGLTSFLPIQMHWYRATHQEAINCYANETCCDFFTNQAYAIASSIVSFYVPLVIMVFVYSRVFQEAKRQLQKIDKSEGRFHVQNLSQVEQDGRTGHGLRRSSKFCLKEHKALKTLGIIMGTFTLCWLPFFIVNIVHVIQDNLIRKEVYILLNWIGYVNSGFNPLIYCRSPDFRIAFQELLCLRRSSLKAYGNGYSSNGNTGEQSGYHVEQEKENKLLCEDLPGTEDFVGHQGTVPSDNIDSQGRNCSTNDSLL
smiles,measurement,setting,value
"C[C@H]1C[C@@H](O)CN(c2ncc(Cl)c(Nc3ccc4c(c3)c3c(c(=O)n4C)OCC(F)(F)[C@H](C4CC4)N3)n2)C1 [12a CCT373566, (S)-10-((5-Chloro-2-((3R,5S)-3-hydroxy-5-methylpiperidin-1-yl)pyrimidin-4-yl)amino)-2-cyclopropyl-3,3-difluoro-7-methyl-1,2,3,4-tetrahydro-[1,4]oxazepino[2,3-c]quinolin-6(7H)-one]",appearance of mice after dosing,"[1]; 1 mg/kg i.v. and 5 mg/kg p.o., female Balb/C mice, after dosing and 24 h after dosing",appeared normal
same,increase in free concentration/exposure in vivo compared to CCT369260,"[1]; 5 mg/kg po, BALB/c mice",over fivefold increase
same,Vd,"[1]; Balb/C, mouse, whole blood, intravenous, initial PK studies",0.47 L/kg
same,CL as % Qh,[1]; female Balb/C mice,6 % Qh
same,bioavailability,"[1]; female, Balb/C, mouse, in vivo, po, 5 mg/kg",44%
same,Vd,"[1]; mouse, in vivo, female Balb/C mice",0.47 L/kg
same,clearance,"[1]; mouse, in vivo, iv, female Balb/C mice, 1 mg/kg i.v.",5.7 mL/min/kg
same,half-life at 6 h,"[1]; mouse, in vivo, po, 5 mg/kg, female Balb/C mice",1.15 h
same,Cmax,"[1]; mouse, in vivo, female Balb/C mice, 1 mg/kg i.v. and 5 mg/kg p.o.",3.95 µM
same,CLu,"[1]; unbound clearance, female Balb/C mice",4670 mL/min/kg
same,Emax,ADORA2A; read-out: Max Response,4.91%
same,IC50,ADORA2A; read-out: RC50 (IC50),> 10 µM
same,Emax,CHRM3; read-out: Max Response,0%
same,IC50,CHRM3; read-out: RC50 (IC50),> 10 µM
same,Emax,ADRA2A; read-out: Max Response,33.6%
same,EC50,ADRA2A; read-out: RC50 (EC50),> 10 µM
same,Emax,ADRB1; read-out: Max Response,0%
same,EC50,ADRB1; read-out: RC50 (EC50),> 10 µM
same,Emax,ADRB2; read-out: Max Response,0%
same,EC50,ADRB2; read-out: RC50 (EC50),> 10 µM
same,Emax,CHRM2; read-out: Max Response,15%
same,EC50,CHRM2; read-out: RC50 (EC50),> 10 µM
same,Emax,CNR1; read-out: Max Response,18.9%
same,EC50,CNR1; read-out: RC50 (EC50),> 10 µM
same,Emax,CNR2; read-out: Max Response,0%
same,EC50,CNR2; read-out: RC50 (EC50),> 10 µM
same,Emax,DRD1; read-out: Max Response,0%
same,EC50,DRD1; read-out: RC50 (EC50),> 10 µM
same,Emax,DRD2S; read-out: Max Response,1.64%
same,EC50,DRD2S; read-out: RC50 (EC50),> 10 µM
same,Emax,HRH2; read-out: Max Response,0%
same,EC50,HRH2; read-out: RC50 (EC50),> 10 µM
same,Emax,HTR1A; read-out: Max Response,12.5%
same,EC50,HTR1A; read-out: RC50 (EC50),> 10 µM
same,Emax,HTR1B; read-out: Max Response,21.5%
same,EC50,HTR1B; read-out: RC50 (EC50),> 10 µM
same,Emax,OPRD1; read-out: Max Response,60.3%
same,EC50,OPRD1; read-out: RC50 (EC50),4.95 µM
same,Emax,OPRK1; read-out: Max Response,37.1%
same,EC50,OPRK1; read-out: RC50 (EC50),> 10 µM
same,Emax,OPRM1; read-out: Max Response,28.9%
same,EC50,OPRM1; read-out: RC50 (EC50),> 10 µM
